The numbers were not newly measured in US20200093804A1, “PHARMACEUTICAL COMPOSITION OF EVEROLIMUS” (INTAS PHARMACEUTICALS LTD., priority 2017, published 2020), which cites them from elsewhere.

For the data set the following is noted: from literature.

Structures are written as SMILES.

Regarding `CO[C@H]1C[C@@H]2CC[C@@H](C)[C@@](O)(O2)C(=O)C(=O)N2CCCC[C@H]2C(=O)O[C@H]([C@H](C)C[C@@H]2CC[C@@H](OCCO)[C@H](OC)C2)CC(=O)[C@H](C)/C=C(\C)[C@@H](O)[C@@H](OC)C(=O)[C@H](C)C[C@H](C)/C=C/C=C/C=C/1C` [Everolimus, (1R,9S,12S,15R,16E,18R,19R,21R,23S,24E,26E,28E,30S,32S,35R)-1,18dihydroxy-12-{(1R)-2-[(1S,3R,4R)-4-(2-hydroxyethoxy)-3-methoxycyclohexyl]-1-methylethyl}-19,30-dimethoxy15,17,21,23,29,35-hexamethyl-11, 36-dioxa-4-aza-tricyclo[30.3.1.04,9]hexatriaconta-16,24,26,28-tetraene-2,3,10, 14,20pentaone], the solubility result was “poor” and the stability entry is on record as “poor”.
